Reference: patent US10189803B2, “Synthesis of therapeutic and diagnostic drugs centered on regioselective and stereoselective ring opening of aziridinium ions” (ILLINOIS INSTITUTE OF TECHNOLOGY, priority 2008, dated 2019)
Where two headings read alike, the source gives them in different places.

How the values were obtained:
[1] = T1 relaxivity of Gd(III) complexes (Bruker mq60 NMR analyzer); type: physicochemical; conditions: aqueous Gd(III) complexes; for T1 relaxivity: pH 7, 59.97 MHz, 37° C.
Procedure: Gd(NE3TA) and Gd(NE3TA-Bn) were synthesized by reacting GdCl3 with NE3TA and NE3TA-Bn, respectively. NE3TA or NE3TA-Bn were mixed with GdCl3 in a molar ratio of 1 to 0.9, and the resulting mixture at pH 7 was heated to 90° C. and stirred until no free Gd(III) ions were detected using an ArsenazoIII (AAIII) assay. Relaxivity of the aqueous […] complexes (pH 7) was measured on a Bruker MQ60 NMR analyzer, and the concentration of the Gd(III) complexes was measured by ICP-MS. […] NE3TA was successfully conjugated with the most common bile acid, cholic acid (FIG. 41).
(§1) Relaxivity Measurements. Relaxivity measurements were acquired by taking the slope of a plot of 1/T1 (s^−1) versus concentration (mM). The longitudinal water proton relaxation times (T1) were determined using a Bruker mq60 NMR (Bruker Canada, Milton, ON, Canada) analyzer operating at 59.97 MHz and 37° C. The agent was added to Millipore water and serially diluted by 0.5 to give a series of 5 concentrations (500 μL total volume) for each relaxivity trial. The T1 was determined using an inversion recovery pulse sequence with 10 different pulse separations per sample, 4 repetitions per echo time, phase cycling, and a recycle delay that is ≥5 times the T1 of each given sample. All curves were fit using a monoexponential curve fitting formula.
Relaxivity of the aqueous Gd(III) complexes (˜pH 7) were measured on a Bruker MQ60 NMR analyzer, and the concentration of the Gd(III) complexes were measured by ICP-MS. […] As mentioned above, the on and off binding to Gd(III) of one of the pendant coordinates would have resulted enhanced relaxivity of Gd(C-NETA) compared to Gd(C-DOTA). Among the evaluated Gd(III) complexes, Gd(C-NE3TA) gives the highest T1 relaxivity at 60 MHz, probably due to increase in q. The relaxation rates for the Gd(III) chelates are dominated by the inner-sphere dipolar coupling between the coordinated water molecule and the paramagnetic Gd(III). The measured relaxivities arise from the exchange between the coordinated water molecule and the surrounding water molecules in solution. […] No indication of Gd(III) dissociation is evident from the relaxivity data, which is in agreement with the in vitro serum stability and in vivo biodistribution studies.
as §1, with “The T1 relaxivity was determined” for “The T1 was determined”

[2] = cited from earlier work
[3] = In vivo biodistribution of radiolabeled complexes in normal athymic mice; conditions: for percent injected dose per gram, Blood / percent injected dose per gram, Femur / percent injected dose per gram, Heart / percent injected dose per gram, Kidney / percent injected dose per gram, Liver / percent injected dose per gram, Liver (second Liver line of Table 7) / percent injected dose per gram, Lung / percent injected dose per gram, Spleen: non-tumor bearing mice, ± SD
Procedure: The in vivo stability of the radiolabeled complexes was evaluated by performing biodistribution studies in normal athymic mice. Selected organs and the blood were harvested at five time points, 0.5, 1, 4, 8, and 24 h post-injection and the radioactivity measured. […] C-NE3TA radiolabeled with ^153Gd was almost completely cleared from blood, liver, spleen, lung, heart, and femur in less than 4 hours, and radioactivity level in the kidney was 0.16%±0.11 ID/g at 24 hour post-injection (Table 9).
In vivo biodistribution studies oh the radiolabeled metal complexes. Female athymic mice were obtained from Charles River Laboratories (Wilmington, Mass.) at 4-6 weeks of age. The pH of the radiolabeled ligands was adjusted to pH ˜7.0 with 0.5 M sodium bicarbonate (pH 10.5) and diluted in phosphate-buffered saline. The radiolabeled ligands ([…] for ^86Y, ^205/6Bi, ^177Lu, and ^203Pb) were administered to the mice in 200 μL of solution via tail vein injection. The mice (5 per data point) were sacrificed by exsanguination at 0.5, 1, 4, 8, and 24 h. Blood and the major organs were harvested, wet-weighed and the radioactivity measured in a γ-scintillation counter (1480 Wizard, Perkin Elmer). The percent injected dose per gram (% ID/g) was determined for each tissue. The values presented are the mean and standard deviation for each tissue.

[4] = In vitro serum stability of radiolabeled C-NE3TA complexes in human serum (SE-HPLC); type: in vitro ADME; conditions: 37° C., up to 11 days
Procedure: C-NE3TA was radiolabeled with ^90Y, ^177Lu, ^203Pb, ^205/6Bi, or ^153Gd as previously described (Chong, H. S.; Milenic, D. E.; Garmestani, K.; Brady, E. D.; Arora, H.; Pfiester, C.; Brechbiel, M. W., Nucl. Med. Biol. 2006, 33, 459-67; Chong H S, Garmestani K, Bryant Jr., L H Milenic D E, Overstreet T, Birch N, Le N, Brady E D, Brechbiel M W. J. Med. Chem. 2006, 49, 2055-2062). In vitro serum stability of the radiolabeled complexes purified via ion-exchange chromatography was performed to determine if C-NE3TA labeled with the radioisotopes remained stable without transchelation or loss of their respective radionuclide in human serum. This was assessed by measuring the transfer of radionuclide from the complex to serum proteins over the course of 11 days.
In vitro stability of the radiolabeled metal complexes. The stability of the purified radiolabeled complexes was evaluated in human serum (Gemini Bioproducts, Woodland, Calif.) for up to 11 days. The serum stability of the radiolabeled complexes was assessed by measuring the transfer of the radionuclide from each complex to serum proteins using SE-HPLC methods. Radiolabeled complexes were diluted to an appropriate volume that allowed for preparation of multiple samples containing 5-10 μCi and were filter-sterilized using a Millex-GV 0.22 μm filter. This stock solution was then mixed with 1400 μL of sterile normal human serum. Aliquots (200 μL) were drawn and separated into individual tubes for subsequent analysis using aseptic technique. The samples were incubated at 37° C., and at designated intervals, subjected to analysis by SE-HPLC. Samples were loaded onto the HPLC and eluted with PBS, pH 7.4 isocratically at 1 mL/min. […] Radioactivity associated with a transfer to serum proteins generally appeared at ˜6 min.

O=C(O)CNC(Cc1ccc([N+](=O)[O-])cc1)CN1CCN(CC(=O)O)CCN(CC(=O)O)CC1.[Gd] (stereo not drawn) [Gd(C-NE3TA)]
T1 relaxivity of Gd(III) complexes of bifunctional ligands ([1]; ~pH 7, 60 MHz): 5.89 mM⁻¹ s⁻¹

O=C(O)CN1CCN(CCN(CC(=O)O)CC(=O)O)CCN(CC(=O)O)CC1.[177Lu] [^177Lu-NETA]
organ uptake and blood clearance (in words) ([2]; in vivo): very low organ uptake and rapid blood clearance

O=C([O-])CN1CCN(CCN(CC(=O)[O-])CC(=O)[O-])CCN(CC(=O)[O-])CC1.[Bi+3] [^205/6Bi-NETA]
retention in liver ([2]; 0 h): 5.93±0.78 % ID/g
retention in liver ([2]; 24 h): 7.31±1.521 % ID/g

O=C(O)CNC(Cc1ccc([N+](=O)[O-])cc1)CN1CCN(CC(=O)O)CCN(CC(=O)O)CC1.[90Y] (stereo not drawn) [^90Y-C-NE3TA]
percent injected dose per gram, Blood ([3]; 0.50 hr): 1.86 ± 1.92 % ID/g
percent injected dose per gram, Femur ([3]; 0.50 hr): 1.19 ± 0.48 % ID/g
percent injected dose per gram, Heart ([3]; 0.50 hr): 0.79 ± 0.52 % ID/g
percent injected dose per gram, Kidney ([3]; 0.50 hr): 2.58 ± 1.04 % ID/g
percent injected dose per gram, Liver ([3]; 0.50 hr): 1.65 ± 0.59 % ID/g
percent injected dose per gram, Liver (second Liver line of Table 7) ([3]; 0.50 hr): 0.48 ± 0.08 % ID/g
percent injected dose per gram, Lung ([3]; 0.50 hr): 1.64 ± 0.99 % ID/g
percent injected dose per gram, Spleen ([3]; 0.50 hr): 0.70 ± 0.15 % ID/g
percent injected dose per gram, Blood ([3]; 1.00 hr): 0.76 ± 1.09 % ID/g
percent injected dose per gram, Femur ([3]; 1.00 hr): 0.82 ± 0.26 % ID/g
percent injected dose per gram, Heart ([3]; 1.00 hr): 0.38 ± 0.31 % ID/g
percent injected dose per gram, Kidney ([3]; 1.00 hr): 2.00 ± 2.32 % ID/g
percent injected dose per gram, Liver ([3]; 1.00 hr): 0.88 ± 0.59 % ID/g
percent injected dose per gram, Liver (second Liver line of Table 7) ([3]; 1.00 hr): 0.32 ± 0.07 % ID/g
percent injected dose per gram, Lung ([3]; 1.00 hr): 1.16 ± 0.65 % ID/g
percent injected dose per gram, Spleen ([3]; 1.00 hr): 0.47 ± 0.26 % ID/g
percent injected dose per gram, Blood ([3]; 4.00 hr): 0.05 ± 0.05 % ID/g
percent injected dose per gram, Femur ([3]; 4.00 hr): 0.30 ± 0.04 % ID/g
percent injected dose per gram, Heart ([3]; 4.00 hr): 0.06 ± 0.02 % ID/g
percent injected dose per gram, Kidney ([3]; 4.00 hr): 0.74 ± 0.15 % ID/g
percent injected dose per gram, Liver ([3]; 4.00 hr): 0.17 ± 0.05 % ID/g
percent injected dose per gram, Liver (second Liver line of Table 7) ([3]; 4.00 hr): 0.29 ± 0.03 % ID/g
percent injected dose per gram, Lung ([3]; 4.00 hr): 0.10 ± 0.04 % ID/g
percent injected dose per gram, Spleen ([3]; 4.00 hr): 0.13 ± 0.08 % ID/g
percent injected dose per gram, Blood ([3]; 8.00 hr): 0.02 ± 0.00 % ID/g
percent injected dose per gram, Femur ([3]; 8.00 hr): 0.22 ± 0.06 % ID/g
percent injected dose per gram, Heart ([3]; 8.00 hr): 0.05 ± 0.01 % ID/g
percent injected dose per gram, Kidney ([3]; 8.00 hr): 0.49 ± 0.10 % ID/g
percent injected dose per gram, Liver ([3]; 8.00 hr): 0.20 ± 0.16 % ID/g
percent injected dose per gram, Liver (second Liver line of Table 7) ([3]; 8.00 hr): 0.22 ± 0.03 % ID/g
percent injected dose per gram, Lung ([3]; 8.00 hr): 0.16 ± 0.22 % ID/g
percent injected dose per gram, Spleen ([3]; 8.00 hr): 0.07 ± 0.02 % ID/g
percent injected dose per gram, Blood ([3]; 24.00 hr): 0.00 ± 0.00 % ID/g
percent injected dose per gram, Femur ([3]; 24.00 hr): 0.08 ± 0.02 % ID/g
percent injected dose per gram, Heart ([3]; 24.00 hr): 0.02 ± 0.01 % ID/g
percent injected dose per gram, Kidney ([3]; 24.00 hr): 0.35 ± 0.05 % ID/g
percent injected dose per gram, Liver ([3]; 24.00 hr): 0.10 ± 0.03 % ID/g
percent injected dose per gram, Liver (second Liver line of Table 7) ([3]; 24.00 hr): 0.17 ± 0.02 % ID/g
percent injected dose per gram, Lung ([3]; 24.00 hr): 0.23 ± 0.36 % ID/g
percent injected dose per gram, Spleen ([3]; 24.00 hr): 0.07 ± 0.02 % ID/g
blood and organ clearance (in words) ([3]; normal athymic mice): rapid blood and liver clearance
stability in human serum (in words) [4]: no measurable loss of radioactivity

O=C([O-])CN1CCN(CC(=O)[O-])CCN(CC(=O)O)CCN(CC(=O)[O-])CC1.[Gd+3] [Gd(DOTA), reference compound]
T1 relaxivity [1]: 2.97 mM⁻¹ s⁻¹

O=C(O)CNCCN1CCN(CC(=O)O)CCN(CC(=O)O)CC1.[Gd] [Gd(NE3TA)]
T1 relaxivity [1]: 3.94 mM⁻¹ s⁻¹
